Source: PubChem BioAssay AID248 (DTP/NCI, 2004)
“And” between values parts separate entries of the source, which are not always exact repeats. Equal entries are not always repeated. Toxic doses and inconclusive results are not listed. Cut-off read from the data, not from the text of the source: active = T/C of 150% or more; inactive = T/C below 125%.

System: L1210 leukemia ip in BDF1 mice, survival T/C
Test: NCI In Vivo Anticancer Drug Screen. Data for tumor model L1210 Leukemia (intraperitoneal) in B6D2F1 (BDF1) mice
Settings: endpoint: mean survival time, higher = longer survival
Outline: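 Tumor was transplanted into mice, which were then dosed with test compound or vehicle alone. Survival was recorded for each group, and the treated figure was expressed relative to the control figure.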

[1] = dose: 100.0 mg/kg/injection, schedule: Q04DX002 (ip), vehicle: Klucel (hydroxypropylcellulose) (HPC)
[2] = dose: 200.0 mg/kg/injection, schedule: Q04DX002 (ip), vehicle: Klucel (hydroxypropylcellulose) (HPC)
[3] = dose: 100.0 mg/kg/injection, schedule: Q04DX003 (ip), vehicle: saline with Tween-80
[4] = dose: 200.0 mg/kg/injection, schedule: Q04DX003 (ip), vehicle: saline with Tween-80
[5] = dose: 100.0 mg/kg/injection, schedule: Q01DX009 (ip), vehicle: Klucel (hydroxypropylcellulose) (HPC)
[6] = dose: 200.0 mg/kg/injection, schedule: Q01DX009 (ip), vehicle: Klucel (hydroxypropylcellulose) (HPC)
[7] = dose: 400.0 mg/kg/injection, schedule: Q01DX009 (ip), vehicle: Klucel (hydroxypropylcellulose) (HPC)
[8] = dose: 100.0 mg/kg/injection, schedule: Q04DX003 (ip), vehicle: Klucel (hydroxypropylcellulose) (HPC)
[9] = dose: 200.0 mg/kg/injection, schedule: Q04DX003 (ip), vehicle: Klucel (hydroxypropylcellulose) (HPC)
[10] = dose: 400.0 mg/kg/injection, schedule: Q04DX003 (ip), vehicle: Klucel (hydroxypropylcellulose) (HPC)
[11] = dose: 400.0 mg/kg/injection, schedule: Q04DX003 (ip), vehicle: saline with Tween-80
[12] = dose: 100.0 mg/kg/injection, schedule: Q01DX001 (ip), vehicle: saline
[13] = dose: 400.0 mg/kg/injection, schedule: Q01DX001 (ip), vehicle: saline
[14] = dose: 12.5 mg/kg/injection, schedule: Q04DX002 (ip), vehicle: saline
[15] = dose: 25.0 mg/kg/injection, schedule: Q04DX002 (ip), vehicle: saline
[16] = dose: 50.0 mg/kg/injection, schedule: Q01DX001 (ip), vehicle: saline
[17] = dose: 200.0 mg/kg/injection, schedule: Q01DX001 (ip), vehicle: saline

Measured: T/C

CC1(C)OCC(C(NC(=O)c2ccccc2)C(OC(=O)c2ccccc2)C2COC(C)(C)O2)O1 (centres undefined)
inactive: [1] 90 % of control | [2] 90 % of control | dose: 400.0 mg/kg/injection, schedule: Q04DX002 (ip), vehicle: Klucel (hydroxypropylcellulose) (HPC) 90 % of control

CCOC(=O)CC/C(=C/c1ccccc1)[N+](=O)[O-]
inactive: dose: 25.0 mg/kg/injection, schedule: Q04DX003 (ip), vehicle: saline with Tween-80 97 % of control and 104 % of control | dose: 50.0 mg/kg/injection, schedule: Q04DX003 (ip), vehicle: saline with Tween-80 94 % of control and 98 % of control | [3] 106 % of control and 107 % of control and 121 % of control | [4] 89 % of control

Cc1ccc([N+](=O)[O-])cc1NC(=O)NCc1cccnc1
inactive: [5] 95 % of control | [6] 87 % of control | [7] 92 % of control

O=C(/C=C/C(=O)Oc1ccccc1)Oc1ccccc1
inactive: [5] 88 % of control | [8] 107 % of control | [6] 91 % of control | [9] 107 % of control | [7] 98 % of control | [10] 98 % of control

CC(=O)C1CCC2C3=CC=C4CC(OC(=O)C5CCCCC5)CCC4(C)C3=CCC12C (centres undefined)
inactive: dose: 100.0 mg/kg/injection, schedule: Q01DX009 (ip), vehicle: saline with Tween-80 100 % of control | dose: 200.0 mg/kg/injection, schedule: Q01DX009 (ip), vehicle: saline with Tween-80 89 % of control | dose: 400.0 mg/kg/injection, schedule: Q01DX009 (ip), vehicle: saline with Tween-80 108 % of control

NC(=O)NCO
inactive: dose: 100.0 mg/kg/injection, schedule: Q04DX002 (ip), vehicle: saline with Tween-80 94 % of control | dose: 200.0 mg/kg/injection, schedule: Q04DX002 (ip), vehicle: saline with Tween-80 94 % of control | dose: 400.0 mg/kg/injection, schedule: Q04DX002 (ip), vehicle: saline with Tween-80 90 % of control

COC(=O)C1c2ccccc2-c2ccc(N3C(=O)C=CC3=O)cc21 (centres undefined)
inactive: [3] 107 % of control | [4] 104 % of control | [11] 115 % of control

O=C(c1ccco1)C(O)c1ccco1 (centres undefined)
inactive: [1] 96 % of control | [2] 104 % of control

NC1=N/C(=C/[N+](=O)[O-])c2ccccc21
inactive: dose: 6.25 mg/kg/injection, schedule: Q04DX003 (ip), vehicle: saline 93 % of control | dose: 12.5 mg/kg/injection, schedule: Q04DX003 (ip), vehicle: saline 96 % of control

CCOc1ccccc1NC(=O)Nc1ccccc1C(F)(F)F
inactive: [5] 94 % of control | [6] 96 % of control | [7] 91 % of control

CCOC(=O)c1ccc(NC(=O)/C=C/C(=O)O)cc1
inactive: [5] 100 % of control | [6] 95 % of control | [7] 98 % of control

N#Cc1c(Br)n(C2OC(CO)C(O)C2O)c2ncnc(N)c12 (centres undefined)
inactive: [12] 123 % of control | dose: 178.0 mg/kg/injection, schedule: Q01DX001 (ip), vehicle: saline 104 % of control and 115 % of control | dose: 267.0 mg/kg/injection, schedule: Q01DX001 (ip), vehicle: saline 110 % of control and 117 % of control | [13] 112 % of control and 121 % of control | dose: 600.0 mg/kg/injection, schedule: Q01DX001 (ip), vehicle: saline 114 % of control

O=C(O)C1(c2ccccc2)SCCS1
inactive: [3] 89 % of control | [4] 96 % of control | [11] 94 % of control

O=C(Nc1ccc(Br)cc1)c1cc(Br)cc(Br)c1O
inactive: dose: 1.56 mg/kg/injection, schedule: Q04DX002 (ip), vehicle: saline 100 % of control | dose: 3.12 mg/kg/injection, schedule: Q04DX002 (ip), vehicle: saline 100 % of control | dose: 6.25 mg/kg/injection, schedule: Q04DX002 (ip), vehicle: saline 97 % of control | [14] 103 % of control and 107 % of control | [15] 104 % of control and 89 % of control

O=C(C1C(c2ccccc2)C1c1ccccc1)N(CCO)Cc1ccccc1 (centres undefined)
inactive: dose: 25.0 mg/kg/injection, schedule: Q04DX002 (ip), vehicle: Klucel (hydroxypropylcellulose) (HPC) 94 % of control | dose: 50.0 mg/kg/injection, schedule: Q04DX002 (ip), vehicle: Klucel (hydroxypropylcellulose) (HPC) 103 % of control | [1] 94 % of control

O=C(O)C(F)(F)F.[Cu+2]
inactive: [14] 98 % of control | [15] 95 % of control

C=CC1CN2CCC1CC2C(=O)c1ccnc2ccc(OC)cc12 (centres undefined)
inactive: [16] 98 % of control | [12] 102 % of control | [17] 95 % of control | [13] 101 % of control

O=C1NC(c2ccc(F)cc2)OC1C(=O)c1ccccc1 (centres undefined)
inactive: [12] 104 % of control | [17] 110 % of control | [13] 104 % of control

CCOC(=O)C1CCNC(=O)C1=O (centres undefined)
inactive: [16] 104 % of control | [12] 101 % of control | [17] 97 % of control

Cc1ccccc1-c1nc2c(N)nc(N)nc2nc1N
inactive: dose: 25.25 mg/kg/injection, schedule: Q01DX Z (ip), vehicle: carboxymethylcellulose (CMC) 104 % of control | dose: 50.0 mg/kg/injection, schedule: Q01DX001 (ip), vehicle: carboxymethylcellulose (CMC) 101 % of control | dose: 50.5 mg/kg/injection, schedule: Q01DX Z (ip), vehicle: carboxymethylcellulose (CMC) 106 % of control | dose: 79.0 mg/kg/injection, schedule: Q04DX002 (ip), vehicle: Klucel (hydroxypropylcellulose) (HPC) 111 % of control | dose: 100.0 mg/kg/injection, schedule: Q01DX001 (ip), vehicle: carboxymethylcellulose (CMC) 96 % of control | dose: 118.0 mg/kg/injection, schedule: Q04DX002 (ip), vehicle: Klucel (hydroxypropylcellulose) (HPC) 97 % of control | dose: 180.0 mg/kg/injection, schedule: Q04DX002 (ip), vehicle: Klucel (hydroxypropylcellulose) (HPC) 100 % of control | dose: 200.0 mg/kg/injection, schedule: Q01DX001 (ip), vehicle: carboxymethylcellulose (CMC) 104 % of control | dose: 270.0 mg/kg/injection, schedule: Q04DX002 (ip), vehicle: Klucel (hydroxypropylcellulose) (HPC) 111 % of control | dose: 400.0 mg/kg/injection, schedule: Q01DX001 (ip), vehicle: carboxymethylcellulose (CMC) 98 % of control | dose: 500.0 mg/kg/injection, schedule: Q01DX Z (ip), vehicle: methylcellulose (MC) 120 % of control | dose: 750.0 mg/kg/injection, schedule: Q01DX Z (ip), vehicle: methylcellulose (MC) 114 % of control | dose: 1000.0 mg/kg/injection, schedule: Q01DX Z (ip), vehicle: methylcellulose (MC) 101 % of control

CCOc1cc(/C=N/NC(=S)Nc2ccccc2)ccc1O
inactive: [5] 98 % of control | [6] 105 % of control | [7] 94 % of control

O=c1[nH]c2ccccc2n1C1=CCN(Cc2ccccc2)CC1
inactive: [8] 95 % of control | [9] 109 % of control | [10] 112 % of control

CCC1COP(=O)(c2ccccc2)OC1 (centres undefined)
inactive: [12] 103 % of control | [17] 103 % of control | [13] 100 % of control

COc1cc(C(=O)OCCCN2CCOCC2)cc(OC)c1OC
inactive: dose: 25.0 mg/kg/injection, schedule: Q01DX009 (ip), vehicle: saline 107 % of control | dose: 25.0 mg/kg/injection, schedule: Q04DX003 (ip), vehicle: saline 106 % of control | dose: 50.0 mg/kg/injection, schedule: Q01DX009 (ip), vehicle: saline 92 % of control | dose: 50.0 mg/kg/injection, schedule: Q04DX003 (ip), vehicle: saline 101 % of control | dose: 100.0 mg/kg/injection, schedule: Q01DX009 (ip), vehicle: saline 92 % of control | dose: 100.0 mg/kg/injection, schedule: Q04DX003 (ip), vehicle: saline 98 % of control | dose: 200.0 mg/kg/injection, schedule: Q01DX009 (ip), vehicle: saline 105 % of control | dose: 200.0 mg/kg/injection, schedule: Q04DX003 (ip), vehicle: saline 98 % of control | dose: 400.0 mg/kg/injection, schedule: Q01DX009 (ip), vehicle: saline 100 % of control | dose: 400.0 mg/kg/injection, schedule: Q04DX003 (ip), vehicle: saline 95 % of control

C=C(CSCC(=O)O)c1ccccc1
inactive: dose: 100.0 mg/kg/injection, schedule: Q04DX002 (ip), vehicle: saline 105 % of control | dose: 200.0 mg/kg/injection, schedule: Q04DX002 (ip), vehicle: saline 97 % of control | dose: 400.0 mg/kg/injection, schedule: Q04DX002 (ip), vehicle: saline 97 % of control

CC(=O)c1ccc[n+](Cc2ccc([N+](=O)[O-])cc2)c1
inactive: dose: 100.0 mg/kg/injection, schedule: Q04DX003 (ip), vehicle: saline sonified 98 % of control
